Where a name gives a salt, the structure may show the parent alone.
Legend:
[1] = test system: human PMNs (rhIL-8 induced chemotaxis); assay: IL-8-induced chemotaxis of human PMNs (microchamber assay); assay type: cell-based; conditions: IL-8 10 ng/mL; for inhibition at 0.01 µM: compound 10^-8 M; for inhibition at 1 µM: compound c = 10^-6 M
Experimental: (§1) The compounds of the invention of formula (I) were evaluated “in vitro” for their ability to inhibit chemotaxis of polymorphonucleate leukocytes (hereinafter referred to as PMNs) and monocytes, induced by the fractions of the complement C5a and C5a-desArg. For this purpose, to isolate the PMNs from heparinized human blood, taken from healthy adult volunteers, mononucleates were removed by means of sedimentation on dextrane (according to the procedure disclosed by W. J. Ming et al., J. Immunol., 138, 1469, 1987) and red blood cells by a hypotonic solution. The cell vitality was calculated by exclusion with Trypan blue, whilst the ratio of PMNs was estimated on the cytocentrifugate after staining with Diff Quick.
(§2) In the chemotaxis experiments, the PMNs were incubated with the compounds of the invention of formula (I) for 15′ at 37° C. in an atmosphere containing 5% CO2.
(§3) The chemotactic activity of the C5a was evaluated on human circulating polymorphonucleates (PMNs) resuspended in HBSS at a concentration of 1.5×10^6 PMNs per ml.
(§4) During the chemotaxis assay (according to W. Falket et al., J. Immunol. Methods, 33, 239, 1980) PVP-free filters with a porosity of 5 mcm and microchambers suitable for carrying out the test were used.
The compounds of the invention in formula (I) were evaluated at a concentration ranging between 10^−6 and 10^−10 M; for this purpose they were added, at the same concentration, both to the lower pores and the upper pores of the microchamber. The wells in the lower part contain the solution of C5a or the simple carrier, those in the upper part contain the suspension in PMNs.
The compounds of the invention were also evaluated in their ability to inhibit IL-8-induced chemotaxis of human PMNs. For this purpose, recombinant human interleukin-8 (rhIL-8, Pepro Tech) was used: the lyophilized protein was dissolved in HBSS (Hank's balanced salts solution) at the concentration of 100 mcg/mL and then diluted down to a concentration of 10 ng/mL in the chemotaxis experiments. R(−)-2-[(4′-isobutyl)phenyl]-propionyl methansulfonamide (ED50=10^−9 M) described in WO 00/24710, was used as reference standard.

[2] = test system: human circulating polymorphonucleates (PMNs), C5a induced chemotaxis; assay: C5a-induced chemotaxis of human PMNs (microchamber assay); assay type: cell-based; conditions: compound 10^-5 M (so in the source), C5a 1 ng/mL
Experimental: as §1
The fractions hr-C5a and hrC5a-desArg (Sigma) were used as stimulating agents in chemotaxis experiments, obtaining practically identical results.
Lyophilized C5a was dissolved in a volume of HBSS containing 0.2% BSA so as to obtain a stock solution having a concentration of 10^−5 M, to be diluted in HBSS to a concentration of 10^−9 M, for the chemotaxis assays.
as §2, §3, §4
[…] The wells in the lower part contain the solution of C5a or the simple carrier, those in the upper part contain the suspension in PMNs.
Inhibition of C5a-induced chemotactic activity by the individual compounds of the invention of formula (I) was evaluated by incubating the microchamber for the chemotaxis for 60 min at 37° C. in an atmosphere containing 5% CO2.

[3] = test system: human PMNs (rhIL-8 induced chemotaxis); conditions: reference standard; rhIL-8 10 ng/mL; read-out: ED50 (inhibition of IL-8-induced chemotaxis of human PMNs); cited from earlier work

SMILES | melting point | inhibition at 0.01 µM [1] | inhibition at 1 µM [1] | inhibition at 10 µM ([2]; 1 h) | inhibition at 10 µM [2] | EC50 [3]
CC(C)Cc1ccc([C@@H](C)C(=O)NCCCN2CCN(C)CC2)cc1.Cl.Cl | 216 to 220 °C | – | – | – | – | –
CC(C)c1cccc([C@@H](C)C(=O)NCCCN(C)C)c1 [(R) 2-(3-isopropylphenyl)-N-3-(dimethylaminopropyl)propionamide] | – | 5 ± 6% | 48 ± 2% | 42 ± 18% | 42 ± 18% | –
CC(C)Cc1ccc([C@@H](C)C(=O)NCCCN2CCOCC2)cc1.Cl [(R) 2-(4-isobutylphenyl)-N-3-(N-morpholinylpropyl)propionamide.HCl] | 90 to 93 °C | 55 ± 12% | – | 24 ± 11% | – | –
CC(C)Cc1ccc([C@@H](C)C(=O)NC2CCN(C)CC2)cc1 [(R) 2-(4-isobutylphenyl)-N-(1-methyl-piperidin-4-yl)propionamide hydrochloride] | – | 4 ± 9% | – | 48 ± 8% | – | –
CC(C)Cc1ccc([C@@H](C)C(=O)NCCCN)cc1 [(R) 2-(4-isobutylphenyl)-N-(3-aminopropyl)propionamide hydrochloride] | – | 2 ± 7% | – | 84 ± 8% | – | –
CC(C)Cc1ccc([C@@H](C)C(=O)NCCCN(C)C)cc1.Cl [(R) 2-(4-isobutylphenyl)-N-(3-dimethylaminopropyl)propionamide hydrochloride] | 95 to 98 °C | 51 ± 15% | – | 65 ± 14% | – | –
CC(C)Cc1ccc([C@@H](C)C(=O)NCCCCN(C)C)cc1.Cl [(R) 2-(4-isobutylphenyl)-N-(4-dimethylaminobutyl)propionamide. HCl] | 95 to 97 °C | 34 ± 6% | – | 55 ± 8% | – | –
CC(C)Cc1ccc([C@@H](C)C(=O)N[C@@H]2C[C@H]3CC[C@@H](C2)N3C)cc1 [(R) 2-(4-isobutylphenyl)-N-(exo-8-methyl-8-aza-bicyclo[3.2.1]oct-3-yl)propionamide hydrochloride] | – | 3 ± 8% | – | 57 ± 6% | – | –
CC(C)Cc1ccc([C@@H](C)C(=O)NCCCN2CCCCC2)cc1.Cl [(R) 2-(4-isobutylphenyl)-N-[3-(1-piperidinyl)propyl]propionamide hydrochloride] | 76 to 80 °C | 46 ± 8% | – | 76 ± 6% | – | –
CC(C)Cc1ccc([C@@H](C)C(=O)NC(CCCCN)C(=O)O)cc1 (stereo partly drawn) [(R),(S′) 2-(4′-isobutylphenyl)-N-(1-carboxy-5-aminopentyl)propionamide hydro-chloride] | – | 5% | – | 49% | – | –
CC(C)Cc1ccc([C@@H](C)C(=O)NCCN(C)C)cc1.Cl [(R)-2-(4-isobutylphenyl)-N-(2-dimethylaminoethyl)propionamide.HCl] | 90 to 93 °C | 56 ± 13% | – | 62 ± 12% | – | –
C[C@@H](C(=O)NCCCN(C)C)c1ccccc1Nc1c(Cl)cccc1Cl [(R)-2-[2-(2,6-dichlorophenylamino)-phenyl]-N-3-(dimethylaminopropyl) propionamide] | – | 1 ± 13% | 58 ± 6% | 41 ± 2% | 41 ± 2% | –
C[C@@H](C(=O)NCCCN(C)C)c1cccc(C(=O)c2ccccc2)c1 [(R)-2-[(3-benzoyl)phenyl]-N-(3-dimethylaminopropyl)propionamide] | – | 53 ± 8% | – | 56 ± 2% | – | –
CC(C)Cc1ccc([C@@H](C)C(=O)NS(C)(=O)=O)cc1 [R(−)-2-[(4′-isobutyl)phenyl]-propionyl methansulfonamide] | – | – | – | – | – | 1 nM
CC(C)Cc1ccc([C@@H](C)C(=O)NCC(=O)NCCN(C)C)cc1 [R-2-[(4′-isobutylphenyl]-N-[2-(dimethylaminoethyl)aminocarbonylmethyl]-propionamide hydrochloride] | – | 31 ± 6% | – | 68 ± 4% | – | –
CC(C)Cc1ccc([C@@H](C)C(=O)N[C@@H](CCCN2CCCCC2)C(=O)O)cc1 [sodium salt] | – | 56 ± 9% | – | 33 ± 15% | – | –

— patent US9493402B2, “Omega-aminoalkylamides of R-2-aryl-propionic acids as inhibitors of the chemotaxis of polymorphonucleate and mononucleate cells” (Dompé S.p.A., priority 2001, dated 2016)
